Measured values published in PubChem BioAssay AID2060484 (Molecular Pharmacology Branch, DTP, NCI, 2025).

Test system: SUM149PT spheroids with HUVEC/MSC, viability
Test: Anticancer human tumor SUM149PT cell line growth inhibition [GQUAD];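 further: spheroids exposed to drugs for seven days before readout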;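 on viability, T/C: percent viability relative to DMSO vehicle control taken as 100%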
Conditions: for IC50: curve of first compound; for viability, T/C: stronger effect = lower value
Summary of the method: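 Multi-cell-type spheroids of tumor cells with HUVEC and mesenchymal stem cells, treated with drug combinations. Concentrations descend in half-log steps from near clinical Cmax, or from 10 microM where Cmax is unknown; viability read-out.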

[1] = second compound 0.0316 µM, first compound 0.0316 µM
[2] = second compound 0.0316 µM, first compound 0.316 µM
[3] = second compound 0.1 µM, first compound 0.0316 µM
[4] = second compound 0.1 µM, first compound 0.316 µM
[5] = second compound 0.316 µM, first compound 0.0316 µM
[6] = second compound 0.316 µM, first compound 0.316 µM
[7] = second compound 1 µM, first compound 0.0316 µM
[8] = second compound 1 µM, first compound 0.316 µM
[9] = second compound 3.16 µM, first compound 0.0316 µM
[10] = second compound 3.16 µM, first compound 0.316 µM
[11] = second compound 10 µM, first compound 0.0316 µM
[12] = second compound 10 µM, first compound 0.316 µM
[13] = second compound 0.0316 µM, first compound 0.1 µM
[14] = second compound 0.0316 µM, first compound 1 µM
[15] = second compound 0.0316 µM, first compound 3.16 µM
[16] = second compound 0.0316 µM, first compound 10 µM
[17] = second compound 0.1 µM, first compound 0.1 µM
[18] = second compound 0.1 µM, first compound 1 µM
[19] = second compound 0.1 µM, first compound 3.16 µM
[20] = second compound 0.1 µM, first compound 10 µM
[21] = second compound 0.316 µM, first compound 0.1 µM
[22] = second compound 0.316 µM, first compound 1 µM
[23] = second compound 0.316 µM, first compound 3.16 µM
[24] = second compound 0.316 µM, first compound 10 µM
[25] = second compound 1 µM, first compound 0.1 µM
[26] = second compound 1 µM, first compound 1 µM
[27] = second compound 1 µM, first compound 3.16 µM
[28] = second compound 1 µM, first compound 10 µM
[29] = second compound 3.16 µM, first compound 0.1 µM
[30] = second compound 3.16 µM, first compound 1 µM
[31] = second compound 3.16 µM, first compound 3.16 µM
[32] = second compound 3.16 µM, first compound 10 µM
[33] = second compound 10 µM, first compound 0.1 µM
[34] = second compound 10 µM, first compound 1 µM
[35] = second compound 10 µM, first compound 3.16 µM
[36] = second compound 10 µM, first compound 10 µM

SMILES: CC[C@@]1(O)C(=O)OCc2c1cc1n(c2=O)Cc2cc3c(CN(C)C)c(O)ccc3nc2-1 + Cc1cnc(CNC(=O)c2c(=O)c3ccc(N4CCCN(C)CC4)nc3n3c2sc2ccccc23)cn1
- IC50 (second compound 0.0316 µM): 26.4 nM
- IC50 (second compound 0.1 µM): 18.7 nM
- IC50 (second compound 0.316 µM): 14.7 nM
- IC50 (second compound 1 µM): < 0.999 nM
- IC50 (second compound 3.16 µM): < 0.999 nM
- IC50 (second compound 10 µM): < 0.999 nM
- viability, T/C (second compound 0.0316 µM, first compound 0.000999 µM): 90.4%
- viability, T/C (second compound 0.0316 µM, first compound 0.00316 µM): 71.8%
- viability, T/C (second compound 0.0316 µM, first compound 0.00999 µM): 77.7%
- viability, T/C [1]: 44.9%
- viability, T/C (second compound 0.0316 µM, first compound 0.0999 µM): 36.1%
- viability, T/C [2]: 40.4%
- viability, T/C (second compound 0.1 µM, first compound 0.000999 µM): 60.9%
- viability, T/C (second compound 0.1 µM, first compound 0.00316 µM): 66.8%
- viability, T/C (second compound 0.1 µM, first compound 0.00999 µM): 56.8%
- viability, T/C [3]: 43.5%
- viability, T/C (second compound 0.1 µM, first compound 0.0999 µM): 44.7%
- viability, T/C [4]: 44.6%
- viability, T/C (second compound 0.316 µM, first compound 0.000999 µM): 48.5%
- viability, T/C (second compound 0.316 µM, first compound 0.00316 µM): 58.3%
- viability, T/C (second compound 0.316 µM, first compound 0.00999 µM): 55.1%
- viability, T/C [5]: 38.9%
- viability, T/C (second compound 0.316 µM, first compound 0.0999 µM): 42%
- viability, T/C [6]: 45.1%
- viability, T/C (second compound 1 µM, first compound 0.000999 µM): 38.5%
- viability, T/C (second compound 1 µM, first compound 0.00316 µM): 44.6%
- viability, T/C (second compound 1 µM, first compound 0.00999 µM): 45.5%
- viability, T/C [7]: 41.5%
- viability, T/C (second compound 1 µM, first compound 0.0999 µM): 37.4%
- viability, T/C [8]: 39.3%
- viability, T/C (second compound 3.16 µM, first compound 0.000999 µM): 38.5%
- viability, T/C (second compound 3.16 µM, first compound 0.00316 µM): 38%
- viability, T/C (second compound 3.16 µM, first compound 0.00999 µM): 40.4%
- viability, T/C [9]: 37.1%
- viability, T/C (second compound 3.16 µM, first compound 0.0999 µM): 36.3%
- viability, T/C [10]: 35.1%
- viability, T/C (second compound 10 µM, first compound 0.000999 µM): 0.4%
- viability, T/C (second compound 10 µM, first compound 0.00316 µM): 11.1%
- viability, T/C (second compound 10 µM, first compound 0.00999 µM): 9.79%
- viability, T/C [11]: 11.4%
- viability, T/C (second compound 10 µM, first compound 0.0999 µM): 2.25%
- viability, T/C [12]: 2.23%

SMILES: Nc1ccn(C2OC(CO)C(O)C2(F)F)c(=O)n1 (stereo unspecified) + Cc1cnc(CNC(=O)c2c(=O)c3ccc(N4CCCN(C)CC4)nc3n3c2sc2ccccc23)cn1
- IC50 (second compound 0.0316 µM): 49.4 nM
- IC50 (second compound 0.1 µM): < 31.6 nM
- IC50 (second compound 0.316 µM): < 31.6 nM
- IC50 (second compound 1 µM): < 31.6 nM
- IC50 (second compound 3.16 µM): < 31.6 nM
- IC50 (second compound 10 µM): < 31.6 nM
- viability, T/C [1]: 62.7%
- viability, T/C [13]: 29.1%
- viability, T/C [2]: 22.4%
- viability, T/C [14]: 17.9%
- viability, T/C [15]: 17.5%
- viability, T/C [16]: 12.2%
- viability, T/C [3]: 50%
- viability, T/C [17]: 31.6%
- viability, T/C [4]: 24.5%
- viability, T/C [18]: 18.6%
- viability, T/C [19]: 16.1%
- viability, T/C [20]: 14.5%
- viability, T/C [5]: 45.5%
- viability, T/C [21]: 29.5%
- viability, T/C [6]: 21.3%
- viability, T/C [22]: 17.3%
- viability, T/C [23]: 17.8%
- viability, T/C [24]: 14%
- viability, T/C [7]: 40.4%
- viability, T/C [25]: 28.7%
- viability, T/C [8]: 20.1%
- viability, T/C [26]: 17.2%
- viability, T/C [27]: 14.6%
- viability, T/C [28]: 14.3%
- viability, T/C [9]: 34.8%
- viability, T/C [29]: 27.1%
- viability, T/C [10]: 19.8%
- viability, T/C [30]: 17.1%
- viability, T/C [31]: 17.8%
- viability, T/C [32]: 14.5%
- viability, T/C [11]: 8.05%
- viability, T/C [33]: 9.51%
- viability, T/C [12]: 2.05%
- viability, T/C [34]: 0.66%
- viability, T/C [35]: 1.03%
- viability, T/C [36]: 2.03%

SMILES: C#Cc1c(F)ccc2cc(O)cc(-c3ncc4c(N5CC6CCC(C5)N6)nc(OCC56CCCN5CC(F)C6)nc4c3F)c12 (stereo unspecified) + Cc1cnc(CNC(=O)c2c(=O)c3ccc(N4CCCN(C)CC4)nc3n3c2sc2ccccc23)cn1
- IC50 (second compound 0.0316 µM): 545 nM
- IC50 (second compound 0.1 µM): 243 nM
- IC50 (second compound 0.316 µM): 42.2 nM
- IC50 (second compound 1 µM): < 31.6 nM
- IC50 (second compound 3.16 µM): < 31.6 nM
- IC50 (second compound 10 µM): < 31.6 nM
- viability, T/C [1]: 90.1%
- viability, T/C [13]: 65.5%
- viability, T/C [2]: 66.2%
- viability, T/C [14]: 35.1%
- viability, T/C [15]: 36.6%
- viability, T/C [16]: 29%
- viability, T/C [3]: 51.6%
- viability, T/C [17]: 61.4%
- viability, T/C [4]: 45.2%
- viability, T/C [18]: 38.9%
- viability, T/C [19]: 30.7%
- viability, T/C [20]: 25.5%
- viability, T/C [5]: 48.6%
- viability, T/C [21]: 52.2%
- viability, T/C [6]: 37.9%
- viability, T/C [22]: 34.1%
- viability, T/C [23]: 28.1%
- viability, T/C [24]: 22.9%
- viability, T/C [7]: 34.1%
- viability, T/C [25]: 38.6%
- viability, T/C [8]: 33.4%
- viability, T/C [26]: 27.1%
- viability, T/C [27]: 24.2%
- viability, T/C [28]: 20.1%
- viability, T/C [9]: 35.5%
- viability, T/C [29]: 32.1%
- viability, T/C [10]: 31.4%
- viability, T/C [30]: 25.6%
- viability, T/C [31]: 23.3%
- viability, T/C [32]: 19.6%
- viability, T/C [11]: 0.13%
- viability, T/C [33]: 2.68%
- viability, T/C [12]: 11.3%
- viability, T/C [34]: 0.63%
- viability, T/C [35]: 2.15%
- viability, T/C [36]: 0.92%
